Values joined by “and” are separate entries in the source; they are usually repeats but may differ in a detail not shown here. Equal values may be shown once. Read-outs that look alike come from different tables or passages of the source.
Columns and labels:
adrenergic α1A receptor = biological target: T1, adrenergic α1A receptor (Homo sapiens, UniProt P35348); assay: Radioligand binding, adrenergic α1A
T1 sequence (P35348 1-466): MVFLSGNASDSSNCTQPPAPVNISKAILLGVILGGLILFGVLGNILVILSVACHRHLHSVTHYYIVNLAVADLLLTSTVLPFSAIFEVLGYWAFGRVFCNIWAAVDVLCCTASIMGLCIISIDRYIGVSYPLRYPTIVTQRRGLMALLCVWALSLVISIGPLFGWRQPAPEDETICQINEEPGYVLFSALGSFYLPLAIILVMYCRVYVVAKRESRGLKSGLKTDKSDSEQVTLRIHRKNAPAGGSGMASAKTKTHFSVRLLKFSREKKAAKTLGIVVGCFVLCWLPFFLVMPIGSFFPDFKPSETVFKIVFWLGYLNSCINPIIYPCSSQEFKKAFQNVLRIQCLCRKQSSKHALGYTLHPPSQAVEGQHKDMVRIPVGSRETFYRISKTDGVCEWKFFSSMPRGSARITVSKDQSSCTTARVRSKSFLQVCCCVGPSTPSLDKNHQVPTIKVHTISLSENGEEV

adrenergic α1B receptor = biological target: T2, adrenergic α1B receptor (Homo sapiens, UniProt P35368); assay: Radioligand binding, adrenergic α1B
T2 sequence (P35368 1-520): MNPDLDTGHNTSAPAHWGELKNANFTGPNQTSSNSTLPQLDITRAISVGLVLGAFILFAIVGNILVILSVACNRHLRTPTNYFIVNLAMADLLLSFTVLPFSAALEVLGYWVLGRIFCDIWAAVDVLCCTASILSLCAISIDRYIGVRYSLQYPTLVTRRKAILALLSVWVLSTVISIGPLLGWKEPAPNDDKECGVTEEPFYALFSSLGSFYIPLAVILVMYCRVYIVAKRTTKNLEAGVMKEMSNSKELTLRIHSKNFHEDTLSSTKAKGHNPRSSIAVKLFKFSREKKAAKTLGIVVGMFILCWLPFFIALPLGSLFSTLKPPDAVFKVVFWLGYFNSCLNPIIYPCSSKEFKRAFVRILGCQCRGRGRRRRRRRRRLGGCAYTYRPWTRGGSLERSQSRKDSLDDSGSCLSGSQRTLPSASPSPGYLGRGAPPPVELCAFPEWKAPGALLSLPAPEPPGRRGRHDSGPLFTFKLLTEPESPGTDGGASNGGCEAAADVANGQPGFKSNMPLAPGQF

adrenergic α1D receptor = biological target: T3, adrenergic α1D receptor (Homo sapiens, UniProt P25100); assay: Radioligand binding, adrenergic α1D
T3 sequence (P25100 1-572): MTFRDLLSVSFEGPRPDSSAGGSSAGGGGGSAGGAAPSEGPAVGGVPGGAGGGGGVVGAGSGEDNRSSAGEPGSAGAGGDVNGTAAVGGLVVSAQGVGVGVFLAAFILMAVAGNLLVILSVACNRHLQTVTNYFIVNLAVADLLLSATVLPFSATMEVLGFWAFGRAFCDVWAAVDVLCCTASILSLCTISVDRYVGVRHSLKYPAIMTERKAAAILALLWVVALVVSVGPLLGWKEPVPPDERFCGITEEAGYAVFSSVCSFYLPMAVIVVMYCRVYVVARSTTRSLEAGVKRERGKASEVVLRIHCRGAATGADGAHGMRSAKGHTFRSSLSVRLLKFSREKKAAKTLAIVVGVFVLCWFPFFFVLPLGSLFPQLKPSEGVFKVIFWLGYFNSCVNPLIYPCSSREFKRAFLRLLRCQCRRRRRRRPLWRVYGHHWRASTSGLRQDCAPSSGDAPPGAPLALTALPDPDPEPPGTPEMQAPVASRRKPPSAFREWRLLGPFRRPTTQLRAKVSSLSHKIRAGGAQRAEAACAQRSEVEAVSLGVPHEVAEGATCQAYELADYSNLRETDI

adrenergic α2A receptor = biological target: T4, adrenergic α2A receptor (Homo sapiens, UniProt P08913); assay: Radioligand binding, adrenergic α2A
T4 sequence (P08913 1-465): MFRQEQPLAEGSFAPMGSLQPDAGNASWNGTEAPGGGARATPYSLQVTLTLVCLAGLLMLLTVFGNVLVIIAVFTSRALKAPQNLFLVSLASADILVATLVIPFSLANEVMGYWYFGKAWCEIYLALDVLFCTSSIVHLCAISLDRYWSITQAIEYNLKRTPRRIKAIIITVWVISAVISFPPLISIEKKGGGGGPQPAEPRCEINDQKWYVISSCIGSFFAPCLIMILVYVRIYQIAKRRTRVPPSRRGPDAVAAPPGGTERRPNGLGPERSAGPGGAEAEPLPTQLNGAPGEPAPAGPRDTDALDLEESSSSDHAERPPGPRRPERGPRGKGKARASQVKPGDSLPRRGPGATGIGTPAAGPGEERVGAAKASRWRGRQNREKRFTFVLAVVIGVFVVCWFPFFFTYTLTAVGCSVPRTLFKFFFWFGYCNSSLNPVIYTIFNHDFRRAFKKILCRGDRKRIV

mu opioid receptor (MOP) = mu opioid receptor (MOP) (Homo sapiens, UniProt P35372); assay type: binding
Sequence of mu opioid receptor (MOP) (P35372 whole entry): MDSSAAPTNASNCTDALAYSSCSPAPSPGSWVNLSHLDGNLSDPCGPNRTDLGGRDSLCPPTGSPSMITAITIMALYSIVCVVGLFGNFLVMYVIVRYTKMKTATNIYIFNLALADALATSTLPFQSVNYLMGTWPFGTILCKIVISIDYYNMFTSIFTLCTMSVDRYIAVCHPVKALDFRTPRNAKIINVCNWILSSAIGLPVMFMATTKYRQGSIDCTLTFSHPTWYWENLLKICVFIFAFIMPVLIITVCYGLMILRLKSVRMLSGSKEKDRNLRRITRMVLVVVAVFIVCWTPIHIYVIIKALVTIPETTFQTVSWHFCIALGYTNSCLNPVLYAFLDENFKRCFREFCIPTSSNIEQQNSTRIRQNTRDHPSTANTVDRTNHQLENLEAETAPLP

nociceptin NOP (ORL1) = nociceptin NOP (ORL1) (Homo sapiens, UniProt P41146); assay: Radioligand binding, nociceptin receptor
Sequence of nociceptin NOP (ORL1) (P41146 whole entry): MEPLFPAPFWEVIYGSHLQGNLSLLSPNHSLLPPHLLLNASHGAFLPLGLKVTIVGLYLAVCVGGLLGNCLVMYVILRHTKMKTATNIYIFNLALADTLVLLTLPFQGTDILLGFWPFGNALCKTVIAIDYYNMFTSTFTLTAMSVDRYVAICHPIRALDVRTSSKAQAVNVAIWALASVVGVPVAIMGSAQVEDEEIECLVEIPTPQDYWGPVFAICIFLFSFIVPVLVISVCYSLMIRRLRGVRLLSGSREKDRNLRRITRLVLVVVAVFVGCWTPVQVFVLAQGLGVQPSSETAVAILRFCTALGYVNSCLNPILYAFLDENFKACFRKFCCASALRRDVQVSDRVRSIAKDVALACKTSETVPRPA

MOP [1] = biological target: MOP (Homo sapiens, UniProt P35372); assay type: cell-based
Sequence of MOP (Homo sapiens, UniProt P35372) (P35372 whole entry): as the sequence (P35372 whole entry) above

DOP = DOP (Homo sapiens, UniProt P41143); assay type: cell-based
Sequence of DOP (P41143 whole entry): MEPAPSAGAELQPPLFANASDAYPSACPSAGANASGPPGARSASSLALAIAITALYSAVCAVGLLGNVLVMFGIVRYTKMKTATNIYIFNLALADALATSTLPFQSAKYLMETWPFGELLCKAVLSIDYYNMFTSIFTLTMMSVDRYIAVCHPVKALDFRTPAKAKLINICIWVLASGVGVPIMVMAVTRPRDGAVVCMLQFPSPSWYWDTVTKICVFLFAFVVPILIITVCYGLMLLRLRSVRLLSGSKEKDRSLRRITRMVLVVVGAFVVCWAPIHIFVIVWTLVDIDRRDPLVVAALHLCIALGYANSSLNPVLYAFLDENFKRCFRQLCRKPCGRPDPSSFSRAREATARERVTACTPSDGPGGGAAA

KOP = KOP (Homo sapiens, UniProt P41145); assay: cell-based; assay type: cell-based
Sequence of KOP (P41145 whole entry): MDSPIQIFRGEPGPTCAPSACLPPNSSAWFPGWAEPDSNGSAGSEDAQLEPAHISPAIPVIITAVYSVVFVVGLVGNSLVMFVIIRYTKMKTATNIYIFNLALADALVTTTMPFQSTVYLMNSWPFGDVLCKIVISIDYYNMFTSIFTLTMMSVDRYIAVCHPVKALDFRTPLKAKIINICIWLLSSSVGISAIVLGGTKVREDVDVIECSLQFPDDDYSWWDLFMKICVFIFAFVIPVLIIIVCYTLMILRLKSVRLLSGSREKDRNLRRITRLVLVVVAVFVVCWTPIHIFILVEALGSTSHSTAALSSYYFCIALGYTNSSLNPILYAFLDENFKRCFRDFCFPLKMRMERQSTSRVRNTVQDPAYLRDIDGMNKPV

Sprague-Dawley rats = conditions: rat, in vivo, iv, 0.1 mg/kg
MOP [2] = conditions: read-out: EC50 at MOP; other study ref 17; cited from earlier work
adrenergic α2B receptor = biological target: T5, adrenergic α2B receptor (Homo sapiens, UniProt P18089); assay type: binding
T5 sequence (P18089 1-450): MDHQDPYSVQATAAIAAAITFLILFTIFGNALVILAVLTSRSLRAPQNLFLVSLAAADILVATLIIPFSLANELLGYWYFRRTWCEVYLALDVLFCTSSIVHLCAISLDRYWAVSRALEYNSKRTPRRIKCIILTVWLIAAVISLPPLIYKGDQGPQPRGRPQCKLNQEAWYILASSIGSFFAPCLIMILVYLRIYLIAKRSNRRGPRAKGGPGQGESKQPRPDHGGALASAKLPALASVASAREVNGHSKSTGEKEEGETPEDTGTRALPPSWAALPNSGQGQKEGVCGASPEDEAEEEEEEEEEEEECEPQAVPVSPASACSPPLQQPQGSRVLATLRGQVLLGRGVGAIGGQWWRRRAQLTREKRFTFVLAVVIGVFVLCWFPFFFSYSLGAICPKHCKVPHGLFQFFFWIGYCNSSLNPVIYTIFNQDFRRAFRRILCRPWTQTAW

[3] = biological target: delta opioid receptor (DOP) (Homo sapiens, UniProt P41143); assay: Radioligand binding, delta opioid receptor; conditions: 10,000 nM test compound
Sequence of delta opioid receptor (DOP) (P41143 whole entry): as the sequence (P41143 whole entry) above

| Compound | percent displacement of bound radioligand, adrenergic α1A (adrenergic α1A receptor; 100 nM test compound) [%] | percent displacement of bound radioligand, adrenergic α1A (adrenergic α1A receptor; 10,000 nM test compound) [%] | percent displacement of bound radioligand, adrenergic α1B (adrenergic α1B receptor; 100 nM test compound) [%] | percent displacement of bound radioligand, adrenergic α1B (adrenergic α1B receptor; 10,000 nM test compound) [%] | percent displacement of bound radioligand, adrenergic α1D (adrenergic α1D receptor; 100 nM test compound) [%] | percent displacement of bound radioligand, adrenergic α1D (adrenergic α1D receptor; 10,000 nM test compound) [%] | percent displacement of bound radioligand, adrenergic a2A (adrenergic α2A receptor; 100 nM test compound) [%] | percent displacement of bound radioligand, adrenergic a2A (adrenergic α2A receptor; 10,000 nM test compound) [%] | percent displacement of bound radioligand, nociceptin NOP (ORL1) (nociceptin NOP (ORL1); 100 nM test compound) [%] | percent displacement of bound radioligand, nociceptin NOP (ORL1) (nociceptin NOP (ORL1); 10,000 nM test compound) [%] | further results |
| --- | --- | --- | --- | --- | --- | --- | --- | --- | --- | --- | --- |
| CC[C@@H]1CN2CC[C@@]3(O)C(=Nc4cccc(OC)c43)[C@@H]2C[C@@H]1/C(=C\OC)C(=O)OC [7-hydroxymitragynine] | 10.1 | 3.5 | 5.9 | −4.8 | −1.9 | 13.5 | −6.7 | −5.4 | −1.6 | 3.4 | percent displacement of bound radioligand, opioid μ (mu opioid receptor (MOP)): 81.8% and 100.7%; functional effect at MOP (MOP [1]): full agonist; functional effect at DOP (DOP): competitive antagonist; Kb (KOP): 115 nM; functional effect at KOP (KOP): competitive antagonist; effect of naltrexone on antinociception (Sprague-Dawley rats): reversed; EC50 (MOP [2]): 53 ± 4 nM |
| CC[C@@H]1CN2CCc3c([nH]c4cccc(O)c34)[C@@H]2C[C@@H]1/C(=C\OC)C(=O)OC [9-hydroxycorynantheidine] | 16.4 | 62.3 | −4.4 | 29.0 | 12.4 | 66.3 | −10.2 | 20.0 | −2.9 | 28.9 | percent displacement of bound radioligand, adrenergic α2B (adrenergic α2B receptor; 100 nM test compound): −5.7%; percent displacement of bound radioligand, adrenergic α2B (adrenergic α2B receptor; 10,000 nM test compound): 14.6%; percent displacement of bound radioligand, opioid δ [3]: 25.3%; percent displacement of bound radioligand, opioid μ (mu opioid receptor (MOP); 100 nM test compound): 29.3%; percent displacement of bound radioligand, opioid μ (mu opioid receptor (MOP); 10,000 nM test compound): 95.4% |
